From patent US20260071234A1, “METHODS AND COMPOSITIONS FOR HEMATOPOIETIC STEM CELL ENHANCEMENT” (THE REGENTS OF THE UNIVERSITY OF CALIFORNIA, priority 2022, published 2026)

Assays:
[1] = system: HLF+ HSC; conditions: day 10 cultures; applicant's analysis of published dataset; cited from earlier work
[2] = system: E4EC; experiment: FACS based endocytosis assay, internalized fluorescent dextran in E4EC; format: cell-based, human; conditions: MYCT1 KD E4EC, 10 μM chlorpromazine
Method: (§1) HSPC or endothelial cells transduced with control, MYCT1 KD, or MYCT1 OE lentiviral vectors were incubated with fluorescent dextran (pHrodo Red Dextran, ThermoFisher Scientific P10361) 40 μg/ml for 30 minutes at 37° C. After incubation, cells were immediately placed on ice, washed with ice-cold DPBS with 5% FBS and resuspended into single cell suspension for FACS analysis. 7AAD was included to discriminate dead cells.

[3] = system: CB HSPCs; experiment: FACS based endocytosis assay, internalized fluorescent dextran in CB HSPCs; format: cell-based, human; conditions: MYCT1 KD CB HSPCs cultured 5 days; chlorpromazine 10 μM, MbCD 1 mM
Method: as §1

| Compound | MYCT1 expression in HLF+ HSC [1] | internalized fluorescent dextran after pre-treatment with endocytosis inhibitor [2] | dextran internalization after pre-treatment with endocytosis inhibitor [3] |
| --- | --- | --- | --- |
| CC(C)n1cnc2c(NCCc3ccc(O)cc3)nc(-c3csc4ccccc34)nc21 [SR1] | minimal MYCT1 expression | – | – |
| Cn1nnc(-c2ccc3c(c2)[nH]c2nc(Cc4ccccc4)nc(NC4CCC(N)CC4)c23)n1 (centres unmarked) [UM171] | minimal MYCT1 expression | – | – |
| CN(C)CCCN1c2ccccc2Sc2ccc(Cl)cc21 [chlorpromazine] | – | dampened the increased endocytosis caused by MYCT1 loss | not sufficient to restore hyperactive endocytosis |
| methyl-beta-cyclodextrin | – | – | not sufficient to restore hyperactive endocytosis |
